#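 48-hour exposure; five concentrations; linearly interpolated endpoints. TGI denotes the concentration required for complete inhibition of growth.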
# Key:
# Assay in all cases: NCI anticancer screen, dose series, 48 h
# OVCAR-8 ovarian = test system: OVCAR-8 ovarian
# HOP-92 NSCLC = test system: HOP-92 NSCLC
# HT29 colon = test system: HT29 colon
# EKVX NSCLC = test system: EKVX NSCLC
# SNB-19 CNS = test system: SNB-19 CNS
# TK-10 renal = test system: TK-10 renal
# SN12C renal = test system: SN12C renal
# CCRF-CEM leukemia = test system: CCRF-CEM leukemia
# HS 578T breast = test system: HS 578T breast
# MDA-MB-435 = test system: MDA-MB-435
# SK-MEL-2 melanoma = test system: SK-MEL-2 melanoma
# SK-OV-3 ovarian = test system: SK-OV-3 ovarian
# SW-620 colon = test system: SW-620 colon
# NCI-H522 lung = test system: NCI-H522 lung
# OVCAR-5 ovarian = test system: OVCAR-5 ovarian
# NCI-H226 lung = test system: NCI-H226 lung
# HOP-62 NSCLC = test system: HOP-62 NSCLC
# NCI-H460 lung = test system: NCI-H460 lung
# SK-MEL-5 melanoma = test system: SK-MEL-5 melanoma
# MDA-N = test system: MDA-N
# OVCAR-3 ovarian = test system: OVCAR-3 ovarian
# UACC-62 melanoma = test system: UACC-62 melanoma
# BT-549 breast = test system: BT-549 breast
# NCI/ADR-RES ovarian = test system: NCI/ADR-RES ovarian
# COLO 205 colon = test system: COLO 205 colon
# A549 NSCLC = test system: A549 NSCLC
# RXF 393 renal = test system: RXF 393 renal
# UO-31 renal = test system: UO-31 renal
# MOLT-4 leukemia = test system: MOLT-4 leukemia
# MDA-MB-231 breast = test system: MDA-MB-231 breast
# SF-268 CNS = test system: SF-268 CNS
# SF-295 CNS = test system: SF-295 CNS
# NCI-H23 lung = test system: NCI-H23 lung
# LOX IMVI melanoma = test system: LOX IMVI melanoma
# T-47D breast = test system: T-47D breast
# RPMI-8226 leukemia = test system: RPMI-8226 leukemia
# HCT-15 colon = test system: HCT-15 colon
# SR leukemia = test system: SR leukemia
# SF-539 CNS = test system: SF-539 CNS
# U251 CNS = test system: U251 CNS
# SNB-75 CNS = test system: SNB-75 CNS
# ACHN renal = test system: ACHN renal
# OVCAR-4 ovarian = test system: OVCAR-4 ovarian
# DU-145 prostate = test system: DU-145 prostate
# CAKI-1 renal = test system: CAKI-1 renal
# HL-60(TB) leukemia = test system: HL-60(TB) leukemia
# HCT-116 colon = test system: HCT-116 colon
# PC-3 prostate = test system: PC-3 prostate
# 786-0 renal = test system: 786-0 renal
# IGROV1 ovarian = test system: IGROV1 ovarian
# K-562 leukemia = test system: K-562 leukemia
# UACC-257 melanoma = test system: UACC-257 melanoma
# KM12 colon = test system: KM12 colon
# MCF7 breast = test system: MCF7 breast
# MALME-3M melanoma = test system: MALME-3M melanoma
# M14 melanoma = test system: M14 melanoma
# A498 renal = test system: A498 renal
# SK-MEL-28 melanoma = test system: SK-MEL-28 melanoma
# HCC-2998 colon = test system: HCC-2998 colon
smiles,measurement,setting,value
COc1ccc(NC(=O)CC(=O)NN)cc1,TGI,OVCAR-8 ovarian,> 100 µM
same,TGI,HOP-92 NSCLC,> 100 µM
same,TGI,HT29 colon,> 100 µM
same,TGI,EKVX NSCLC,> 100 µM
same,TGI,SNB-19 CNS,> 100 µM
same,TGI,TK-10 renal,> 100 µM
same,TGI,SN12C renal,> 100 µM
same,TGI,CCRF-CEM leukemia,> 100 µM
same,TGI,HS 578T breast,> 100 µM
same,TGI,MDA-MB-435,> 100 µM
same,TGI,SK-MEL-2 melanoma,> 100 µM
same,TGI,SK-OV-3 ovarian,> 100 µM
same,TGI,SW-620 colon,> 100 µM
same,TGI,NCI-H522 lung,> 100 µM
same,TGI,OVCAR-5 ovarian,> 100 µM
same,TGI,NCI-H226 lung,> 100 µM
same,TGI,HOP-62 NSCLC,> 100 µM
same,TGI,NCI-H460 lung,> 100 µM
same,TGI,SK-MEL-5 melanoma,> 100 µM
same,TGI,MDA-N,> 100 µM
same,TGI,OVCAR-3 ovarian,> 100 µM
same,TGI,UACC-62 melanoma,> 100 µM
same,TGI,BT-549 breast,> 100 µM
same,TGI,NCI/ADR-RES ovarian,> 100 µM
same,TGI,COLO 205 colon,> 100 µM
same,TGI,A549 NSCLC,> 100 µM
same,TGI,RXF 393 renal,> 100 µM
same,TGI,UO-31 renal,> 100 µM
same,TGI,MOLT-4 leukemia,> 100 µM
same,TGI,MDA-MB-231 breast,> 100 µM
same,TGI,SF-268 CNS,> 100 µM
same,TGI,SF-295 CNS,> 100 µM
same,TGI,NCI-H23 lung,> 100 µM
same,TGI,LOX IMVI melanoma,> 100 µM
same,TGI,T-47D breast,> 100 µM
same,TGI,RPMI-8226 leukemia,> 100 µM
same,TGI,HCT-15 colon,> 100 µM
same,TGI,SR leukemia,> 100 µM
same,TGI,SF-539 CNS,> 100 µM
same,TGI,U251 CNS,> 100 µM
same,TGI,SNB-75 CNS,> 100 µM
same,TGI,ACHN renal,> 100 µM
same,TGI,OVCAR-4 ovarian,> 100 µM
same,TGI,DU-145 prostate,> 100 µM
same,TGI,CAKI-1 renal,> 100 µM
same,TGI,HL-60(TB) leukemia,> 100 µM
same,TGI,HCT-116 colon,> 100 µM
same,TGI,PC-3 prostate,> 100 µM
same,TGI,786-0 renal,> 100 µM
same,TGI,IGROV1 ovarian,> 100 µM
same,TGI,K-562 leukemia,> 100 µM
same,TGI,UACC-257 melanoma,> 100 µM
same,TGI,KM12 colon,> 100 µM
same,TGI,MCF7 breast,> 100 µM
same,TGI,MALME-3M melanoma,> 100 µM
Cc1[nH]c(-c2ccccc2)c(O)c1C(=O)OC12CC3CC(CC(C3)C1)C2,TGI,OVCAR-8 ovarian,25.8 µM
same,TGI,HOP-92 NSCLC,34.8 µM
same,TGI,HT29 colon,17.2 µM
same,TGI,EKVX NSCLC,27 µM
same,TGI,SNB-19 CNS,28.3 µM
same,TGI,SN12C renal,30.1 µM
same,TGI,CCRF-CEM leukemia,> 100 µM
same,TGI,HS 578T breast,25.9 µM
same,TGI,MDA-MB-435,28.6 µM
same,TGI,SK-MEL-2 melanoma,31.3 µM
same,TGI,SK-OV-3 ovarian,28.1 µM
same,TGI,SW-620 colon,29.7 µM
same,TGI,NCI-H522 lung,22.9 µM
same,TGI,M14 melanoma,24.9 µM
same,TGI,OVCAR-5 ovarian,26.8 µM
same,TGI,NCI-H226 lung,27.1 µM
same,TGI,HOP-62 NSCLC,28.1 µM
same,TGI,A498 renal,35 µM
same,TGI,NCI-H460 lung,21.3 µM
same,TGI,SK-MEL-5 melanoma,28 µM
same,TGI,MDA-N,31.2 µM
same,TGI,OVCAR-3 ovarian,27.8 µM
same,TGI,UACC-62 melanoma,32.8 µM
same,TGI,BT-549 breast,31.8 µM
same,TGI,NCI/ADR-RES ovarian,27.3 µM
same,TGI,COLO 205 colon,27 µM
same,TGI,A549 NSCLC,25.7 µM
same,TGI,RXF 393 renal,20.1 µM
same,TGI,UO-31 renal,32.6 µM
same,TGI,MOLT-4 leukemia,32.3 µM
same,TGI,MDA-MB-231 breast,33.1 µM
same,TGI,SF-268 CNS,27.2 µM
same,TGI,SF-295 CNS,14.1 µM
same,TGI,NCI-H23 lung,31.6 µM
same,TGI,T-47D breast,29.5 µM
same,TGI,RPMI-8226 leukemia,> 100 µM
same,TGI,HCT-15 colon,27.4 µM
same,TGI,SR leukemia,44 µM
same,TGI,SF-539 CNS,23.7 µM
same,TGI,U251 CNS,28.2 µM
same,TGI,SNB-75 CNS,23.1 µM
same,TGI,ACHN renal,29.7 µM
same,TGI,OVCAR-4 ovarian,34.4 µM
same,TGI,DU-145 prostate,29.3 µM
same,TGI,CAKI-1 renal,35.4 µM
same,TGI,HL-60(TB) leukemia,> 100 µM
same,TGI,SK-MEL-28 melanoma,27.8 µM
same,TGI,HCT-116 colon,30.4 µM
same,TGI,PC-3 prostate,28.9 µM
same,TGI,786-0 renal,27 µM
same,TGI,IGROV1 ovarian,27.4 µM
same,TGI,K-562 leukemia,> 100 µM
same,TGI,UACC-257 melanoma,31.2 µM
same,TGI,KM12 colon,19.3 µM
same,TGI,MCF7 breast,28 µM
same,TGI,MALME-3M melanoma,28 µM
O=C(O)CCn1cnc2c(=S)nc[nH]c21,TGI,OVCAR-8 ovarian,> 100 µM
same,TGI,HT29 colon,> 100 µM
same,TGI,EKVX NSCLC,> 100 µM
same,TGI,SNB-19 CNS,> 100 µM
same,TGI,TK-10 renal,> 100 µM
same,TGI,SN12C renal,> 100 µM
same,TGI,CCRF-CEM leukemia,> 100 µM
same,TGI,HS 578T breast,> 100 µM
same,TGI,MDA-MB-435,> 100 µM
same,TGI,SK-MEL-2 melanoma,> 100 µM
same,TGI,SK-OV-3 ovarian,> 100 µM
same,TGI,SW-620 colon,> 100 µM
same,TGI,NCI-H522 lung,> 100 µM
same,TGI,M14 melanoma,> 100 µM
same,TGI,OVCAR-5 ovarian,> 100 µM
same,TGI,NCI-H226 lung,> 100 µM
same,TGI,HOP-62 NSCLC,> 100 µM
same,TGI,A498 renal,> 100 µM
same,TGI,NCI-H460 lung,> 100 µM
same,TGI,SK-MEL-5 melanoma,> 100 µM
same,TGI,MDA-N,> 100 µM
same,TGI,OVCAR-3 ovarian,> 100 µM
same,TGI,UACC-62 melanoma,> 100 µM
same,TGI,BT-549 breast,> 100 µM
same,TGI,NCI/ADR-RES ovarian,> 100 µM
same,TGI,COLO 205 colon,> 100 µM
same,TGI,A549 NSCLC,> 100 µM
same,TGI,RXF 393 renal,> 100 µM
same,TGI,UO-31 renal,> 100 µM
same,TGI,MOLT-4 leukemia,> 100 µM
same,TGI,MDA-MB-231 breast,> 100 µM
same,TGI,SF-268 CNS,> 100 µM
same,TGI,SF-295 CNS,> 100 µM
same,TGI,NCI-H23 lung,> 100 µM
same,TGI,LOX IMVI melanoma,> 100 µM
same,TGI,T-47D breast,> 100 µM
same,TGI,RPMI-8226 leukemia,> 100 µM
same,TGI,HCT-15 colon,> 100 µM
same,TGI,SR leukemia,> 100 µM
same,TGI,SF-539 CNS,> 100 µM
same,TGI,U251 CNS,> 100 µM
same,TGI,SNB-75 CNS,> 100 µM
same,TGI,ACHN renal,> 100 µM
same,TGI,OVCAR-4 ovarian,> 100 µM
same,TGI,DU-145 prostate,> 100 µM
same,TGI,CAKI-1 renal,> 100 µM
same,TGI,HL-60(TB) leukemia,> 100 µM
same,TGI,SK-MEL-28 melanoma,> 100 µM
same,TGI,HCT-116 colon,> 100 µM
same,TGI,PC-3 prostate,> 100 µM
same,TGI,786-0 renal,> 100 µM
same,TGI,IGROV1 ovarian,> 100 µM
same,TGI,K-562 leukemia,> 100 µM
same,TGI,UACC-257 melanoma,> 100 µM
same,TGI,HCC-2998 colon,> 100 µM
same,TGI,KM12 colon,> 100 µM
same,TGI,MCF7 breast,> 100 µM
same,TGI,MALME-3M melanoma,> 100 µM

# — PubChem BioAssay (NCI)
